From US4645776A, “N-(dichlorofluoromethylthio)-3,4-dimethylmaleimide and its use as a fungicide” (Bayer Aktiengesellschaft, priority 1984, dated 1987)
In brackets after ≈: the same amount, converted by molar mass.

What was measured:
Sclerophoma pityophila = assay: MIC on agar, Sclerophoma pityophila; format: cell-based; conditions: Sydowia polyspora, 336 h, beerwort/peptone agar, 28° C., 2 weeks
Experimental: (§1) N-(Dichlorofluoromethylthio)-3,4-dimethylmaleimide is added in concentrations of 0.1 mg/l to 5,000 mg/l to an agar prepared from beerwort and peptone. After storage at 28° C. and 60 to 70% relative atmospheric humidity for 2 weeks, the MIC is determined. The MIC is the lowest concentration of active compound at which no growth at all of the species of microbe used takes place, and is given in the following table.

Alternaria tenuis = assay: MIC on agar, Alternaria tenuis; format: cell-based; conditions: Alternaria alternata, 336 h, beerwort/peptone agar, 28° C., 2 weeks
Experimental: as §1

slime organisms = assay: Action against slime organisms; format: cell-based; conditions: 504 h; slime organisms (about 10^6 germs/ml), Allens nutrient solution, room temperature, 3 weeks
Experimental: N-(Dichlorofluoromethylthio)-3,4-dimethylmaleimide (dissolved in a little acetone) is used in concentrations of in each case 0.1 to 100 mg/l in Allens nutrient solution (Arch. Mikrobiol. 17, 34 to 53 (1952)), which contains, in 4 l of sterile water, 0.2 g of ammonium chloride, 4.0 g of sodium nitrate, 1.0 g of dipotassium hydrogen phosphate, 0.2 g of calcium chloride, 2.05 g of magnesium sulphate, 0.02 g of iron chloride and 1% of caprolactam. Shortly beforehand, the nutrient solutions are infected with slime organisms (about 10^6 germs/ml) which have been isolated from spinning water circulations used in the production of polyamide. Nutrient solutions which contain the minimum inhibitory concentration (MIC) or higher concentrations of active compound are still completely clear after culture at room temperature for 3 weeks, that is to say the marked increase in microbes and slime formation noticeable after 3 to 4 days in nutrient solutions containing no active compound are absent.

Chaetomium globosum = assay: MIC on agar, Chaetomium globosum; format: cell-based; conditions: 336 h, beerwort/peptone agar, 28° C., 2 weeks
Experimental: as §1

Polyporus versicolor = assay: MIC on agar, Polyporus versicolor; format: cell-based; conditions: Trametes versicolor, 336 h, beerwort/peptone agar, 28° C., 2 weeks
Experimental: as §1

Aspergillus niger = assay: MIC on agar, Aspergillus niger; format: cell-based; conditions: 336 h, beerwort/peptone agar, 28° C., 2 weeks
Experimental: as §1

Penicillium glaucum = assay: MIC on agar, Penicillium glaucum; format: cell-based; conditions: 336 h, beerwort/peptone agar, 28° C., 2 weeks
Experimental: as §1

Aureobasidium pullulans = assay: MIC on agar, Aureobasidium pullulans; format: cell-based; conditions: 336 h, beerwort/peptone agar, 28° C., 2 weeks
Experimental: as §1

[1] = test system: Aspergillus niger, Aureobasidium pullulans, Alternaria tenuis, Penicillim citrinum, Stachybotrys atra, Paecilamyces varioti, Cladosporium herbarum, Aspergillus …; assay: Test as a paint fungicide (mould-resistance of paint films, Report 219 of the Defense Standards Laboratories); conditions: alkyd resin lacquer paint containing 0.8% of compound based on weight of film; also after ageing (running water 24° C. 24 h, fresh air 40° to 60° C. 8 days, dry Xenon test 110 h); evaluated after 3 weeks at 28° to 30° C.
Experimental: The testing is carried out in accordance with the method in Report 219 of the Defense Standards Laboratories Maribyrnong/Australia, as follows: A smooth card is coated on both sides with the paint to be tested and dried at room temperature for 8 days. For ageing, part of the paint film is kept in running water of 24° C. for 24 hours, or aerated with fresh air of 40° to 60° C. for 8 days, or subjected to a dry Xenon test for 110 hours. 5×5 cm sections of the samples thus prepared are placed individually on a glucose nutrient medium in Petri dishes and contaminated with a spore suspension of the following fungi: Aspergillus niger, Aureobasidium pullulans, Alternaria tenuis, Penicillim citrinum, Stachybotrys atra, Paecilamyces varioti, Cladosporium herbarum, Aspergillus ustus and Aspergillus flavus.
The contaminated dishes are kept at 28° to 30° C. and 90 to 95% relative atmospheric humidity, and are evaluated after 3 weeks. Paint films are regarded as mould-resistant if the samples remain free from fungi after these tests.
A commercially available lacquer paint based on alkyd resin is tested for mould-resistance by the above-mentioned test method.

Trichoderma viride = assay: MIC on agar, Trichoderma viride; format: cell-based; conditions: 336 h, beerwort/peptone agar, 28° C., 2 weeks
Experimental: as §1

Coniophora puteana = assay: MIC on agar, Coniophora puteana; format: cell-based; conditions: 336 h, beerwort/peptone agar, 28° C., 2 weeks
Experimental: as §1

Lentinus tigrinus = assay: MIC on agar, Lentinus tigrinus; format: cell-based; conditions: 336 h, beerwort/peptone agar, 28° C., 2 weeks
Experimental: as §1

SMILES: CC1=C(C)C(=O)N(SC(F)(Cl)Cl)C1=O [N-(dichlorofluoromethylthio)-3,4-dimethylmaleimide]
- MIC (Sclerophoma pityophila): 1 µg/mL (≈ 3.87 µM)
- MIC (Alternaria tenuis): 0.75 µg/mL (≈ 2.91 µM)
- MIC (slime organisms): 7.5 µg/mL (≈ 29.1 µM)
- MIC (Chaetomium globosum): 50 µg/mL (≈ 194 µM)
- MIC (Polyporus versicolor): 7.5 µg/mL (≈ 29.1 µM)
- MIC (Aspergillus niger): 50 µg/mL (≈ 194 µM)
- MIC (Penicillium glaucum): 5 µg/mL (≈ 19.4 µM)
- MIC (Aureobasidium pullulans): 0.5 µg/mL (≈ 1.94 µM)
- mould-resistance of paint films [1]: mould-resistant
- MIC (Trichoderma viride): 100 µg/mL (≈ 387 µM)
- MIC (Coniophora puteana): 0.75 µg/mL (≈ 2.91 µM)
- MIC (Lentinus tigrinus): 1.5 µg/mL (≈ 5.81 µM)
